{
  "source": "patent US4704277A",
  "about": "“Methods of treating bone disorders” (Sloan-Kettering Institute for Cancer Research, priority 1985, dated 1987)",
  "key": {"bone calcium": {"test_system": "bone calcium", "conditions": "humans; application Ser. No. 622,726; cited from earlier work"}, "bone resorption": {"test_system": "bone resorption", "assay": "Inhibition of bone resorption by gallium nitrate", "conditions": "direct effect", "method": "(§1) These additional experiments were performed to permit evaluation of bone turnover in patients with bone metastases, in response to short term infusion of gallium nitrate."}, "[1]": {"test_system": "long bones (metaphyses and diaphyses)", "assay": "Bone Ga, Ca, P content and ash weight of bone fragments from gallium-treated rats", "format": "in vivo, Sprague-Dawley rats", "conditions": "for bone calcium content vs nontreated: 7 injections of 5 mg over 14 days; for Ga content of bone: gallium treated rats, n=6, 20160 min", "method": "(§2) Young female (120 g) Sprague-Dawley rats received a course of injections with 0.5 or 5.0 mg gallium nitrate, every other day. The 0.5 mg concentration is approximately equivalent (on a weight/weight basis) to the dose used to treat patients with cancer-related hypercalcemia by Warrell, et. al., supra. The animals received 7 interperitoneal injections over a 9-14 day period. Control groups were injected with carrier only. […] To obtain bone samples the rats were anesthetized and then sacrificed. The long bones were removed and cleaned of all muscle and connective tissue. The metaphyseal (ends containing the growth plate) and diaphyseal (shaft) portions of the bones were separated using a dissecting microscope. The bone pieces were then split and cleaned of all visible marrow, frozen and lyophilized. The split, dried, marrow-free bone fragments were pulverized in a liquid nitrogen cooled colloid mill to produce bone powder. Aliquots of bone particles were used for: (a) ash weight determination, (b) measurement of Ga, Ca and P content and (c) X-ray diffraction analysis. A portion of one bone particle preparation was sieved to uniform size using an #325 stainless steel mesh. Approximately 50 mg of the sieved-particle bone was then dispersed in bromoform:toluene, density=2.0 g/cc (as measured with a pynconometer). The suspension was centrifuged in the cold at 100 x G for 15 minutes. The suspended particles, representing newly formed mineral bone, density <2.0 g/cc were removed, washed with acetone then dried. The pelleted particles, density >2.0 g/cc were similarly washed with acetone and dried. Both the light and heavy density fractions were analyzed for Ga and Ca content.\nGallium content in bone was measured by flameless atomic absorption spectrophotometry. Inorganic phosphorus was measured spectrophotometrically.\nIn subsequent experiments, rats were given 7 injections with 5 mg gallium nitrate over 14 days. […] As expected, increased calcium content was measured in the heavier density fraction >2.0 g/cc (220±31 vs 132±42 ug Ca/mg bone) which contained the more mineralized and more mature hydroxyapatite crystalline material."}, "bone hydroxyapatite": {"test_system": "bone hydroxyapatite", "assay": "Wide angle X-ray diffraction of powdered bone (hydroxyapatite crystal size/perfection, B002)", "format": "in vivo, Sprague-Dawley rats", "conditions": "for BOO2 (002 line width at half maximum): gallium treated rats, n=11", "method": "as §2\nAliquots of the powdered bone were subjected to wide angle x-ray diffraction using Cu K(alpha) radiation. Samples were rapidly scanned from 4° 2.phi. to 70° 2.phi. to detect the presence of phases other than hydroxyapatite. Triplicate slow scans from 24° to 28° 2.phi. were used to estimate hydroxyapatite crystal size and perfection based on the line-width measurements (B002) made at the half maximum point of the c-axis 002 reflection at 25.8° 2.phi.. […] As a consequence, crystals formed in the metaphyses of the treated animals were similar to those found in the more mature diaphyses."}, "total serum calcium": {"test_system": "total serum calcium", "assay": "Comparative effect of calcitonin and gallium nitrate on total serum calcium", "format": "in vivo", "conditions": "one patient; calcitonin many times over recommended dose; FIG. 1", "method": "Comparative studies were performed as to the effect of Calcitonin on total serum calcium, compared to gallium nitrate in a patient with severe life-threatening hypercalcemia due to bone metastases."}, "[2]": {"assay": "Body weight in gallium nitrate injected rats (lack of toxicity)", "format": "in vivo, Sprague-Dawley rats", "conditions": "0.5 or 5.0 mg i.p. every other day, end of 14 day schedule", "method": "as §2, with “The suspension was centrifuged in the cold at 100 x G for 15 minutes. The suspended particles, representing newly formed mineral bone, density <2.0 g/cc were removed, washed with acetone then dried. The pelleted particles, density >2.0 g/cc were similarly washed with acetone and dried.” left out"}, "bone tissue": {"test_system": "bone tissue", "assay": "Histological studies of bone tissue for cytotoxicity", "text": "(§3) Cytotoxicity studies were undertaken to determine if gallium nitrate was cytotoxic to bone tissue. […] At this dose and time, a 20% decrease in ^3 H-thymidine incorporation into DNA was seen."}, "bone turnover": {"test_system": "bone turnover", "assay": "Bone turnover in patients with bone metastases on short term gallium nitrate infusion", "format": "in vivo, human (patients with bone metastases)", "method": "as §1\nSeventeen infusions were administered to fifteen patients, five of whom were hypercalcemic. Gallium nitrate was administered as a continuous infusion at daily doses ranging from […], over 5-7 days. Bone turnover was assessed by serial measurements of urinary levels of Ca^2+, hydroxyproline (OHP), and creatinine (Cr), as well as the serum levels of osteocalcin (BGP). […] Mean reduction was 70±18%. Eight patients with increased bone turnover (i.e., a urinary OHP/Cr ratio greater than 6.0), received eleven drug infusions. […] Mean reduction was 49±22%."}, "bone cell models": {"test_system": "bone cell models", "assay": "Cytotoxicity in bone cell models", "format": "cell-based", "text": "as §3"}, "[3]": {"conditions": "continuous infusion; Warrell 1983, Leyland-Jones 1983; cited from earlier work"}, "[4]": {"conditions": "patients treated in clinical testing; cited from earlier work"}, "bone": {"test_system": "bone", "conditions": "cited from earlier work"}},
  "data": [
    {"compound": "O=[N+]([O-])[O-].O=[N+]([O-])[O-].O=[N+]([O-])[O-].[Ga+3]", "note": "[gallium nitrate]", "values": [
      {"measurement": "excessive loss of bone calcium", "setting": "bone calcium", "result": "effective in reducing excessive loss of bone calcium"},
      {"measurement": "bone resorption", "setting": "bone resorption", "result": "directly inhibits bone resorption"},
      {"measurement": "mineral content (ash weights), treated vs control", "setting": "[1]; 7 injections with 5 mg gallium nitrate over 14 days", "result": "not significantly different"},
      {"measurement": "site of greatest gallium uptake", "setting": "[1]; bone fragments, different total doses", "result": "metaphyseal bone"},
      {"measurement": "bone calcium content vs nontreated", "setting": "[1]; diaphyseal fragments", "result": "No differences in calcium content"},
      {"measurement": "Ga content of bone", "setting": "[1]; diaphyses", "result": "149 ± 30", "unit": "ng/mg"},
      {"measurement": "gallium incorporation into bone", "setting": "[1]; gallium:calcium ratio, different total doses", "result": "incorporated into bone in very low amounts"},
      {"measurement": "Ca content of density fraction", "setting": "[1]; heavier density fraction >2.0 g/cc", "result": "220±31", "unit": "ug Ca/mg bone"},
      {"measurement": "Ga content of density fraction", "setting": "[1]; heavier density fraction >2.0 g/cc (comparator of the 'vs.')", "result": "2.9±0.4", "unit": "ug Ga/mg Ca"},
      {"measurement": "Ga content of density fraction", "setting": "[1]; lighter bone fraction, <2.0 g/cc (newly synthesized mineral)", "result": "3.2±0.2", "unit": "ug Ga/mg Ca"},
      {"measurement": "Ca content of density fraction", "setting": "[1]; lighter fraction <2.0 g/cc (comparator of the 'vs')", "result": "132±42", "unit": "ug Ca/mg bone"},
      {"measurement": "Ga content of bone", "setting": "[1]; metaphyses", "result": "384 ± 69", "unit": "ng/mg"},
      {"measurement": "bone calcium content vs nontreated", "setting": "[1]; metaphyses", "result": "statistically significant increase in bone calcium content"},
      {"measurement": "mineral phases detected", "setting": "bone hydroxyapatite; all samples, scan 4° to 70° 2.phi.", "result": "The only phase detected in all samples was hydroxyapatite"},
      {"measurement": "BOO2 (002 line width at half maximum)", "setting": "bone hydroxyapatite; diaphyses", "result": "0.50 ± .03 degrees"},
      {"measurement": "B002 vs control", "setting": "bone hydroxyapatite; metaphyseal particles", "result": "differed significantly"},
      {"measurement": "BOO2 (002 line width at half maximum)", "setting": "bone hydroxyapatite; metaphyses", "result": "0.50 ± .03 degrees"},
      {"measurement": "hydroxyapatite crystal size/perfection", "setting": "bone hydroxyapatite; metaphyses, region of more active bone mineralization", "result": "larger or more perfect crystals"},
      {"measurement": "reduction of elevated serum calcium vs calcitonin", "setting": "total serum calcium", "result": "distinctly greater effect on reducing elevated serum calcium"},
      {"measurement": "body weights or weight gained, treated vs nontreated", "setting": "[2]", "result": "no differences"},
      {"measurement": "cytotoxic effect at light microscopic level", "setting": "bone tissue; histology", "result": "no evidence of cytotoxic effect"},
      {"measurement": "matrix or mineral components", "setting": "bone tissue; stained sections", "result": "no alteration in matrix or mineral components"},
      {"measurement": "urinary OHP/Cr ratio", "setting": "bone turnover; 6 patients with bone turnover not elevated", "result": "no significant change"},
      {"measurement": "urinary OHP/Cr ratio", "setting": "bone turnover; 8 patients with increased bone turnover (OHP/Cr > 6.0)", "result": "All patients showed a decrease in OHP/Cr"},
      {"measurement": "mean reduction of urinary OHP/Cr ratio", "setting": "bone turnover; 8 patients with increased bone turnover (OHP/Cr > 6.0), 11 infusions", "result": "49±22", "unit": "%"},
      {"measurement": "urinary 24 hour Ca2+ excretion", "setting": "bone turnover; after each infusion in all 15 patients", "result": "markedly reduced after each infusion in all 15 patients"},
      {"measurement": "accelerated bone loss", "setting": "bone turnover; cancer patients with bone metastases", "result": "reduces accelerated bone loss"},
      {"measurement": "mean reduction of urinary 24 hour Ca2+ excretion", "setting": "bone turnover; continuous infusion 100-300 mg daily over 5-7 days, 15 patients", "result": "70±18", "unit": "%"},
      {"measurement": "protein banding patterns on SDS-PAGE, treated vs untreated", "setting": "bone cell models; 3H-amino acid labeled cell homogenates", "result": "no differences"},
      {"measurement": "cell numbers or viability", "setting": "bone cell models; 48 hours, up to 25 uM", "result": "Little change in cell numbers or viability"},
      {"measurement": "action as consequence of cytotoxic effect on bone cells", "setting": "bone cell models; conclusion", "result": "not a consequence of a cytotoxic effect on bone cells"},
      {"measurement": "safety of administration", "setting": "[3]", "result": "safe and non-toxic"}
    ]},
    {"compound": "O=P(O)(O)C(Cl)(Cl)P(=O)(O)O", "note": "[dichloromethylenediphosphonate]", "values": [
      {"measurement": "leukemia", "setting": "[4]", "result": "increased development of leukemia"}
    ]},
    {"compound": "calcitonin", "values": [
      {"measurement": "rate of bone resorption", "setting": "bone; parenteral", "result": "transient decrease in the rate of bone resorption"},
      {"measurement": "bone mineral content (densimetric)", "setting": "bone; repetitive injections, Gruber et al.", "result": "increase bone mineral content"},
      {"measurement": "duration of anti-resorptive effect", "setting": "bone; tachyphylaxis", "result": "short-lived"}
    ]},
    {"compound": "F", "note": "[fluoride]", "values": [
      {"measurement": "bone structure", "setting": "bone; Jowsey et al. 1968", "result": "highly abnormal (lamellar-type) bone structure which is less strong relative to normal bone"}
    ]},
    {"compound": "CC(O)(P(=O)(O)O)P(=O)(O)O", "note": "[EHDP]", "values": [
      {"measurement": "bone mineralization", "setting": "bone; Schenk et al. 1973", "result": "blocks normal bone mineralization and leads to formation of disordered and inadequately calcified bone (osteomalacia)"}
    ]}
  ]
}
